{"source": "patent US20230210906A1", "about": "“Composite 3D Brain Organoids with Optic Structures, Uses Thereof and Culture Medium for Obtaining Them” (priority 2022, published 2023)", "key": {"[1]": {"tested_on": "A2E formation and lipofuscin accumulation", "settings": "mouse model of recessive Stargardt's macular degeneration; cited from earlier work"}, "[2]": {"tested_on": "cells of the cell line IMR90", "assay": "Optic vesicle formation in iPSC-derived 3D brain organoids exposed to retinol acetate", "assay_type": "cell-based, human", "settings": "for Percentage of organoids with optic vesicles (%): cell line IMR90", "description": "It is important to start differentiation with a well-maintained human iPS cell culture. Cells were splitted once after thawing, mycoplasma tested and checked for appropriate stem cell morphology. Before inducing neural differentiation, iPS cells were dissociated to single cells. Therefore, iPS cells were once carefully washed with pre-warmed DMEM/F12 (Gibco) and then treated for 5 min. at 37° C. with Accutase (Sigma-Aldrich). After cell collection, centrifuging and counting, cells were diluted in neural induction medium (NIM, Stem cell technologies) plus Rockinhibitor (10 μM, Y-27632 2HCl, Selleck Chem) at a concentration of 1×10^5 cells per ml. 100 μl of this cell suspension was given into each well of a 96-well v-bottom low adherent plate and incubated at 37° C. and 5% CO2. Half of the medium was changed every day for 5 days until neurospheres were formed.\nAt day 5 of neural induction, the neurospheres were collected carefully with a cut […] pipette tip and transferred to a 100 mm petri dish containing “neurosphere medium” (Table 9). Additionally, 0.1% Matrigel was added to the medium and neurospheres were incubated for 5 days at 37° C. and 5% CO2. At day 3, 2 ml of “optic vesicle 3D brain organoid medium” (Table 10) containing retinol acetate was added. At day 5, neurospheres were transferred to spinner flasks containing 100 ml “optic vesicle 3D brain organoid medium” ([…]) to let the neurospheres developing to optic vesicle containing brain organoids. […] Optic vesicle organoids were collected for experiments at day 20, 30 and 50. For each cell line, we performed at least 3-4 rounds (batches) of optic vesicle 3D brain organoid generation. Each batch comprises of starting from thawing iPSCs until generating optic vesicle organoids. Morphological and functional optic vesicles brain organoids were easily identified by visibly pigmented areas and used for further analyses."}, "[3]": {"tested_on": "sodium channel of organoid neurons (cell lines IMR-90 and GM25256)", "assay_type": "cell-based, human"}, "[4]": {"tested_on": "optic vesicle brain organoids (cell line GM25256)", "description": "Optic vesicle organoids of day 40 to 50 were transferred to wells of a 12-wellplate each with 2 ml of optic organoid medium and kept in absolute darkness at 37° C. and 5% CO2 for 24 hours before electroretinogram (ERG) experiments. For ERG, each organoid was placed under red light in an electrode chamber. The electrode chamber was then placed into the dark chamber of the ERG apparatus and connected to the superfusion system containing optic organoid medium. For dose dependent light sensitivity, organoids were exposed to 500 milliseconds long flashes of 2000, 20.000 and 200.000 mlux. Each light intensity was repeated three times in a time interval of 3 min. before the next higher light intensity was applied and responses were recorded. Speed of superfusion was 0.5 ml/min.\nFor a third experiment, organoids were superfused in optic organoid medium with higher speed of 2 ml/min. […] For isolating the A-wave by blocking signal transduction from photoreceptors to next the retinal cell layers, 10 mM aspartate was added to the medium after the equilibration time and electric response was continuously recorded. Finally, aspartate was washed out by adding optic organoid medium without aspartate into the system while recording of electric signals as response to flashes."}, "[5]": {"tested_on": "rod-bipolar synaptic disjunction", "settings": "cited from earlier work"}}, "note": "Read-outs that look alike come from different tables or passages of the source.", "data": [{"molecule": "CC1=C(/C=C/C(C)=C/C=C/C(C)=C\\C(=O)O)C(C)(C)CCC1", "note": "[isotretinoin]", "values": [{"measurement": "Effect on A2E formation and lipofuscin accumulation", "setting": "[1]", "value": "inhibits A2E formation and lipofuscin accumulation"}]}, {"molecule": "retinol acetate [Retinoic acetate]", "values": [{"measurement": "Percentage of organoids with optic vesicles (%)", "setting": "[2]; 40 nM", "value": 21, "unit": "%"}, {"measurement": "Yield of optic vesicle brain organoids", "setting": "[2]; 60 nM, among concentrations ranging from 0 to 120 nM", "value": "best results (highest yield of optic vesicle brain organoids)"}, {"measurement": "Formation of pigmented structures (possibly primordial eye fields)", "setting": "[2]; 60 nM, at around day 30", "value": "reproducibly induced the formation of pigmented structures"}, {"measurement": "Percentage of organoids with optic vesicles (%)", "setting": "[2]; 60 nM", "value": 80, "unit": "%"}, {"measurement": "Percentage of organoids with optic vesicles (%)", "setting": "[2]; 100 nM", "value": 15, "unit": "%"}, {"measurement": "Percentage of organoids with optic vesicles (%)", "setting": "[2]; 150 nM", "value": 10, "unit": "%"}, {"measurement": "Percentage of organoids with optic vesicles (%)", "setting": "[2]; 200 nM", "value": 10, "unit": "%"}, {"measurement": "Percentage of organoids with optic vesicles (%)", "setting": "[2]; 250 nM", "value": 8, "unit": "%"}]}, {"molecule": "NC1=N[C@H](O)[C@H]2[C@H]3O[C@]4(O)O[C@@H]([C@@H](O)[C@@]2(N1)[C@@H]4O)[C@]3(O)CO", "note": "[TTX, Tetrodotoxin]", "values": [{"measurement": "Effect on Na+ current (inward current) of neurons", "setting": "[3]", "value": "blocked Na+ current"}, {"measurement": "Sensitivity of outward (outwardly rectifying K+) current", "setting": "[3]", "value": "TTX insensitive"}]}, {"molecule": "N[C@@H](CC(=O)O)C(=O)O", "note": "[aspartate]", "values": [{"measurement": "ERG amplitude upon light flashes, single organoid recording", "setting": "[4]", "value": "< −400", "unit": "pV"}, {"measurement": "ERG hyperpolarization after washout of aspartate", "setting": "[4]", "value": "−147", "unit": "pV"}, {"measurement": "ERG hyperpolarization on average during aspartate treatment", "setting": "[4]", "value": "−278", "unit": "pV"}, {"measurement": "Effect on ERG b-wave", "setting": "[4]", "value": "blocked the b-wave"}]}, {"molecule": "O=S(=O)(c1cccc2cnccc12)N1CCCNCC1", "note": "[fasudil]", "values": [{"measurement": "Effect on rod-bipolar synaptic disjunction", "setting": "[5]; intravitreal injection", "value": "effective"}, {"measurement": "Effect on rod-bipolar synaptic disjunction", "setting": "[5]; subretinal injection", "value": "reduces rod-bipolar synaptic disjunction"}]}]}
